# Tests used:
# ULK1 = biological target: T1, ULK1 (Homo sapiens, UniProt O75385); test: Inhibition of ULK1 protein activity (ADP-Glo method); type: biochemical; settings: ULK1 enzyme, ATP and MBP substrate, 60 min room temperature
# T1 construct: purchased Promega V3521
# T1 sequence (O75385 1-649 limits assumed): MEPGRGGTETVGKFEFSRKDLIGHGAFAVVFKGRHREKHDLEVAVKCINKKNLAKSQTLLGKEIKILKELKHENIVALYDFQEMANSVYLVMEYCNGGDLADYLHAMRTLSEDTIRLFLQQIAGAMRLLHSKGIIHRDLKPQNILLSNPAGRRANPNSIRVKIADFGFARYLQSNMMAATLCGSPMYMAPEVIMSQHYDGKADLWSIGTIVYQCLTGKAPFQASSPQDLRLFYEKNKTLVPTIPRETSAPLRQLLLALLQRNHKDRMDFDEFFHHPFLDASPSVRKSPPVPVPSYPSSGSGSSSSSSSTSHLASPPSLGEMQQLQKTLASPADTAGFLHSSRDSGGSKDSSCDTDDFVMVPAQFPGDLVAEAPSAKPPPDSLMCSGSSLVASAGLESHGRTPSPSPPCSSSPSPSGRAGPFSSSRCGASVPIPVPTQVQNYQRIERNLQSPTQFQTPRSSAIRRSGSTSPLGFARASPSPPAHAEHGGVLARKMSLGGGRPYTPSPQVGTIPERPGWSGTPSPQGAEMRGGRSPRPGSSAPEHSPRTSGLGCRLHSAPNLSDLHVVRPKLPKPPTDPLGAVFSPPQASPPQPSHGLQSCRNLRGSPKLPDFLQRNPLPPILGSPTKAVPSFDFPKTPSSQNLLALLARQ
# Method: In this experiment, the inhibitory effect of a compound on the phosphorylation function of ULK1 was detected by ADP-Glo method. The inhibitory effect of the compound of the present disclosure on the ULK1 target was evaluated based on IC50.
# Compound formulation: Using an ECHO (Beckman, ECHO650), the compound was serially diluted 3-fold in DMSO in a 384-well plate (PE, 6007290). A total of 10 concentration points were set, with the maximum concentration of the compound being 10 μM, and 50 nL per well. Positive control wells and negative control wells were added with 50 nL DMSO, respectively.
# Reaction process: A 32 nM of ULK1 (Promega, V3521) solution was formulated, and 2.5 μL/well was transferred to the compound test wells and the negative control wells (NC). 2.5 μL/well of 1× Assay buffer was added to the positive control wells (PC). A mixed solution of 100 μM of ATP and 1.86 μM of MBP was formulated, and 2.5 μL/well was transferred to the reaction plate. After centrifugation, the reaction was initiated and incubated at room temperature for 60 min. After the reaction was completed, 5 μL/well of ADP-Glo Reagent (Promega, V9102) was added to the reaction plate. After centrifugation, the reaction was incubated at room temperature for 40 minutes. Finally, 10 μL/well of Kinase Detection Buffer was added, followed by centrifugation and incubation at room temperature for 30 min. The chemiluminescence value was read using Envision (PE, Envision2105).
# Assay buffer: a reaction buffer; and Kinase Detection buffer: a detection buffer, both were taken from the ADP-Glodetection kit, purchased from Promega, model V9102. 3. Data analysis
# The inhibition ratio of a compound on ULK1 activity was calculated using the following formula:
# Inhibition ratio=(sample signal value−negative control signal value)/(positive control signal value−negative control signal value)×100%. The dose-effect curve was fitted using the log(inhibitor) vs. response -Variable slope of the analysis software GraphPad Prism 8, thereby affording the IC50 value of each compound for enzyme activity.
# [1] = test system: ATG13 phosphorylation level in MIA PaCa-2 cells; test: Inhibition of ATG13 phosphorylation level in MIA PaCa-2 cells (pATG13 ELISA); type: cell-based; settings: Homo sapiens, Torin1 100 nM, 24 h incubation, Phospho-Atg13 (ser355)
# Method: The inhibitory effect of the compound of the present disclosure on ULK1 was evaluated by testing the inhibitory effect of the compound of the present disclosure on ATG13 phosphorylation level in MIA PaCa-2 cells.
# MIA PaCa-2 cells (ATCC, CRM-CRL-1420) were cultured in a complete medium, namely, a DMEM medium (Gibco, 11965-092) containing 10% fetal bovine serum (Corning, 35-081-CV), 2.5% horse serum (Gibco, 16050-122) and 1% double antibody (Gibco, 15140-122). The experiments were performed according to the requirements of the kit (Cell Signaling Technology, 17208C).
# Cell plating: MIA PaCa-2 at 80% growth confluence were digested, diluted with the complete medium, and added to a 96-well cell culture plate (Costar, 3596) at 20,000 cells per well, with a volume of 90 μL.
# Compound incubation: 5 μL of Torin1 and 5 μL of a serially diluted compound were added to each well so that the highest concentration of the compound in the reaction system was 10 μM. 5-fold serial dilution with 8 concentrations was performed, and the final concentration of Torin1 was 100 nM. The DMSO content in the system was 0.1%. The reaction plate was placed in an incubator at 37° C. in 5% CO2, and was incubated for 24 h. 10 μL of Torin1 was added to the negative control wells (NC) to a final concentration of 100 nM, with a DMSO content of 0.1%.
# Reaction detection: After the incubation was completed, the cell plate was washed with a pre-cooled DPBS (Corning, 21-031-CVC) to wash away the compound and medium. 50 μL of pre-cooled cell lysis solution was added to each well, incubated on ice for 10 min. The cell plate was centrifuged, and the supernatant was transferred to an ELISA reaction plate. Simultaneously, 50 μL of Phospho-Atg13 (ser355) rabbit detection antibody was added, followed by incubation at room temperature under shaking for 60 min. After the incubation was completed, the reaction plate was washed with a washing solution for 4 times. 100 μL of TMB substrate was added for color development reaction, followed by incubation under shaded conditions with shaking for 15 min. Finally, 100 μL of stop solution was added to each well. The reaction was terminated by shaking for 10 s, and the absorbance value at 450 nm and 560 nm were collected within 10 min using Envision (Perkin Elmer, EnVision 2105).
# The inhibition ratio was calculated by subtracting the absorbance value at […] from the absorbance value at 450 nm for each well. The inhibition ratio formula is as follows: inhibition ratio=(sample signal value−negative control signal value)/(positive control signal value -negative control signal value)×100%.
# The dose-effect curve was fitted using the log (inhibitor) vs. response -Variable slope of Graphpad Prism8, thereby affording the IC50 value of each compound for inhibiting ATG13 phosphorylation level.
compound,measurement,setting,value
CN1CCN(c2ccc(Nc3ncc(C(F)(F)F)c(CCN4CCCCC4=O)n3)c(C3CC3)c2)CC1 [Example 28],IC50,ULK1,100 to 1000 nM
CC(=O)Nc1ccc(Nc2cccc(Nc3ncc(C(F)(F)F)c(N4CCN(C)C(=O)C4)n3)c2)cc1 [Example 43],IC50,ULK1,> 1000 nM
CN1CCC(COc2ccc(Nc3ncc(C(F)(F)F)c(OCCCN4CCCCC4=O)n3)c(C3CC3)c2)CC1 [Example 34],IC50,ULK1,100 to 1000 nM
CN1CCN(c2ccc(Nc3ncc(C(F)(F)F)c(N4CC5(CCN(C)CC5)C4)n3)c(C3CC3)c2)CC1 [Example 48],IC50,ULK1,< 100 nM
CN1CCN(c2nc(Nc3cccc(NC(=O)N4CCCC4)c3)ncc2C(F)(F)F)CC1=O [Example 22],IC50,ULK1,> 1000 nM
CN1CCN(c2ccc(Nc3ncc(C(F)(F)F)c(NC4CCN(C)C(=O)C4)n3)c(C3CC3)c2)CC1 (stereo not shown) [Example 10],IC50,ULK1,100 to 1000 nM
Cc1ccn(C2CCN(c3nc(Nc4ccc(N5CCN(C)CC5)cc4C4CC4)ncc3C(F)(F)F)C2)n1 (stereo not shown) [Example 41],IC50,ULK1,< 100 nM
CN1CCN(c2ccc(Nc3ncc(C(F)(F)F)c(N4CCC5(CN(C)C5)C4)n3)c(C3CC3)c2)CC1 [Example 38],IC50,ULK1,< 100 nM
CN1CCN(c2ccc(Nc3ncc(C(F)(F)F)c(N4CCC(NC(=O)C5CCC5)CC4)n3)c(C3CC3)c2)CC1 [Example 4],IC50,ULK1,100 to 1000 nM
CN1CCN(c2nc(Nc3cccc(Nc4ccc(N)cc4)c3)ncc2C(F)(F)F)CC1=O [Example 21],IC50,ULK1,100 to 1000 nM
CN1CCN(c2ccc(Nc3ncc(C(F)(F)F)c(CCNC(=O)C4CCC4)n3)c(C3CC3)c2)CC1 [Example 27],IC50,ULK1,100 to 1000 nM
Cc1ccnn1C1CCN(c2nc(Nc3ccc(N4CCN(C)CC4)cc3C3CC3)ncc2C(F)(F)F)CC1 [Example 13],IC50,ULK1,100 to 1000 nM
CN1CCN(c2ccc(Nc3ncc(C(F)(F)F)c(N4CC5(CCCN(C)C5)C4)n3)c(C3CC3)c2)CC1 [Example 50],IC50,ULK1,100 to 1000 nM
CN1CCN(c2ccc(Nc3ncc(C(F)(F)F)c(N4CCC(N5CCCC5=O)CC4)n3)c(C3CC3)c2)CC1 [Example 6],IC50,ULK1,> 1000 nM
CN1CCN(c2ccc(Nc3ncc(C(F)(F)F)c(NC(=O)C4CCC4)n3)c(C3CC3)c2)CC1 [Example 7],IC50,ULK1,100 to 1000 nM
CN1CCN(c2ccc(Nc3ncc(C(F)(F)F)c(N4CCCN(C(=O)C5CCC5)CC4)n3)c(C3CC3)c2)CC1 [Example 9],IC50,ULK1,100 to 1000 nM
CN1CCN(c2ccc(Nc3ncc(C(F)(F)F)c(N4CCN(C5CCCNC5)C(=O)C4)n3)c(C3CC3)c2)CC1 (stereo not shown) [Example 45],IC50,ULK1,100 to 1000 nM
CN1CCN(c2nc(Nc3cccc(CN4CCOCC4)c3)ncc2C(F)(F)F)CC1=O [Example 16],IC50,ULK1,> 1000 nM
Cc1ccn(C2CN(c3nc(Nc4ccc(N5CCN(C)CC5)cc4C4CC4)ncc3C(F)(F)F)C2)n1 [Example 2],IC50,ULK1,100 to 1000 nM
CN1CCN(c2ccc(Nc3ncc(C(F)(F)F)c(N4CCC(N5CCCCC5=O)CC4)n3)c(C3CC3)c2)CC1 [Example 8],IC50,ULK1,> 1000 nM
CN1CCN(c2ccc(Nc3ncc(C(F)(F)F)c(N4CC5(CCN(C)C5)C4)n3)c(C3CC3)c2)CC1 [Example 25],IC50,[1],100 to 1000 nM
same,IC50,ULK1,< 100 nM
CN1CCN(c2ccc(Nc3ncc(C(F)(F)F)c(NCCCc4ccccc4C#N)n3)c(C3CC3)c2)CC1 [Example 44],IC50,ULK1,< 100 nM
CN1CCN(c2ccc(Nc3ncc(C(F)(F)F)c(N[C@H]4CCN(C)C4=O)n3)c(C3CC3)c2)CC1 [Example 11],IC50,ULK1,100 to 1000 nM
CN1CCN(c2ccc(Nc3ncc(C(F)(F)F)c(N4CCC(CN5CCCCC5=O)C4)n3)c(C3CC3)c2)CC1 (stereo not shown) [Example 12],IC50,ULK1,100 to 1000 nM
CN1CCC2(CCN(c3nc(Nc4ccc(N5CCOCC5)cc4)ncc3C(F)(F)F)CC2)C1 [Example 23],IC50,ULK1,< 100 nM
CN1CCN(c2ccc(Nc3ncc(C(F)(F)F)c(COCCN4CCCCC4=O)n3)c(C3CC3)c2)CC1 [Example 42],IC50,ULK1,> 1000 nM
CN1CCN(c2ccc(Nc3ncc(C(F)(F)F)c(N4CCN(C(=O)C5CCC5)CC4)n3)c(C3CC3)c2)CC1 [Example 3],IC50,ULK1,100 to 1000 nM
CN1CCN(c2ccc(Nc3ncc(C(F)(F)F)c(N4C5CCC4C(=O)N(C)C5)n3)c(C3CC3)c2)CC1 (stereo not shown) [Example 39],IC50,ULK1,< 100 nM
CN1CCN(c2ccc(Nc3ncc(C(F)(F)F)c(OCCCC(=O)N4CCOCC4)n3)c(C3CC3)c2)CC1 [Example 47],IC50,ULK1,< 100 nM
CN1CCC(n2cc(-c3nc(Nc4ccc(N5CCN(C)CC5)cc4C4CC4)ncc3C(F)(F)F)cn2)CC1 [Example 33],IC50,ULK1,< 100 nM
CN1CCN(c2ccc(Nc3ncc(C(F)(F)F)c(OC4CCN(C(=O)C5CCC5)CC4)n3)c(C3CC3)c2)CC1 [Example 18],IC50,ULK1,100 to 1000 nM
CN1CCN(c2ccc(Nc3ncc(C(F)(F)F)c(N4CCC5(CCNC5=O)CC4)n3)c(C3CC3)c2)CC1 [Example 35],IC50,ULK1,< 100 nM
CN1CCN(c2ccc(Nc3ncc(C(F)(F)F)c(N4CCC5(CC4)CN(C)C5)n3)c(C3CC3)c2)CC1 [Example 36],IC50,ULK1,> 1000 nM
CN1CC[C@@H](Oc2ccc(Nc3ncc(C(F)(F)F)c(OCCCN4CCCCC4=O)n3)c(C3CC3)c2)C1 [Example 46],IC50,ULK1,< 100 nM
CN1CCN(c2ccc(Nc3ncc(C(F)(F)F)c(NC4CCC(N5CCCC5=O)CC4)n3)c(C3CC3)c2)CC1 (stereo not shown) [Example 52],IC50,ULK1,< 100 nM
CN1CCN(c2ccc(Nc3ncc(C(F)(F)F)c(OC4CCN(C)C(=O)C4)n3)c(C3CC3)c2)CC1 (stereo not shown) [Example 17],IC50,ULK1,< 100 nM

# Source: patent US20260274819A1, “ULK1 INHIBITOR, PREPARATION METHOD THEREFOR AND USE THEREOF” (DOVETREE MEDICINES UNUS, INC., priority 2023, published 2026)
